Common to all, as to assay type: cell-based
One assay concerns the target T1, A2B receptors (Homo sapiens, UniProt P29275).
T1 sequence (P29275 1-332): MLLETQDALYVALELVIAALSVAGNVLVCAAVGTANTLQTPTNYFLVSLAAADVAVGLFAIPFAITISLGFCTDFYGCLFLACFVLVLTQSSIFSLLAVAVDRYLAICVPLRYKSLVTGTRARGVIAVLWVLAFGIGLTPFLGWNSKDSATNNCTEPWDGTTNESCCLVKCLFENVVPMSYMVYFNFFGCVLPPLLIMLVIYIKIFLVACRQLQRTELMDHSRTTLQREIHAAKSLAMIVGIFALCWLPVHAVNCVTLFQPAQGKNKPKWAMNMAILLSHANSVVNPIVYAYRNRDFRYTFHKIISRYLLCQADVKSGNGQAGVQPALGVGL
The assay is described as follows: functional cAMP (HTRF) assay, recombinant HEK293 cells expressing human A2B receptor, agonist NECA. More on the design: expressed in transfected cells; host or cells: HEK293.

In another assay the target is T2, human A3 receptor (Homo sapiens, UniProt P0DMS8).
T2 construct: expressed in transfected cells; host or cells: CHO
T2 sequence (P0DMS8 1-318): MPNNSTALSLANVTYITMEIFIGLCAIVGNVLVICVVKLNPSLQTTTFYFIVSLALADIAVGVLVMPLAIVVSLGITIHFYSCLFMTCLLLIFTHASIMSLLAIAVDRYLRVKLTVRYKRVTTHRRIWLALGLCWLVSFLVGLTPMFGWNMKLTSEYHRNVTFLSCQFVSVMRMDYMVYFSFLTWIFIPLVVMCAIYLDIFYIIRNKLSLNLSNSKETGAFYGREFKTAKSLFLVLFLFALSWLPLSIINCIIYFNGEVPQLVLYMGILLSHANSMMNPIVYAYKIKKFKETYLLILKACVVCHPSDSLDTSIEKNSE
The assay can be described thus: functional cAMP (HTRF) assay, recombinant CHO cells expressing human A3 receptor, forskolin, agonist IB-MECA. Summed up:
(§1)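 CHO cells (hA1 or hA3) + forskolin + test cpd + agonist (CPA/A1, IB-MECA/A3), 30 min; HTRF cAMP readout; normalized vs inhibitor and DMSO controls, curve fit.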
Background: In TR-FRET formats the signal depends on donor and acceptor labels being close together.

A further assay concerns the target T3, human A2A receptor (Homo sapiens, UniProt P29274).
T3 construct: expressed in transfected cells; host or cells: HEK293
The assay is described as follows: functional cAMP (HTRF) assay, recombinant HEK293 cells expressing human A2A receptor, agonist NECA.

The next assay deals with T4, human A1 receptor (Homo sapiens, UniProt P30542).
T4 construct: expressed in transfected cells; host or cells: CHO
T4 sequence (P30542 1-326): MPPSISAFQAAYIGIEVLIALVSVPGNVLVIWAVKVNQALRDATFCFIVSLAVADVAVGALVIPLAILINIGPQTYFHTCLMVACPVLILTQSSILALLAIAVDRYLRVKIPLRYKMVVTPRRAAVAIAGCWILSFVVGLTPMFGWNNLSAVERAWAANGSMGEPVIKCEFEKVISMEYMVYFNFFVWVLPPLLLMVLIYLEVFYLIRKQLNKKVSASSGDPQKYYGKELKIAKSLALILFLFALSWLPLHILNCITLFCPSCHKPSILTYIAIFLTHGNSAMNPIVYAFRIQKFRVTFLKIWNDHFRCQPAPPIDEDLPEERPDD
The assay is described as follows: functional cAMP (HTRF) assay, recombinant CHO cells expressing human A1 receptor, forskolin, agonist CPA. Summed up:
as §1

Structures are written as SMILES.

T3 sequence (P29274 whole entry): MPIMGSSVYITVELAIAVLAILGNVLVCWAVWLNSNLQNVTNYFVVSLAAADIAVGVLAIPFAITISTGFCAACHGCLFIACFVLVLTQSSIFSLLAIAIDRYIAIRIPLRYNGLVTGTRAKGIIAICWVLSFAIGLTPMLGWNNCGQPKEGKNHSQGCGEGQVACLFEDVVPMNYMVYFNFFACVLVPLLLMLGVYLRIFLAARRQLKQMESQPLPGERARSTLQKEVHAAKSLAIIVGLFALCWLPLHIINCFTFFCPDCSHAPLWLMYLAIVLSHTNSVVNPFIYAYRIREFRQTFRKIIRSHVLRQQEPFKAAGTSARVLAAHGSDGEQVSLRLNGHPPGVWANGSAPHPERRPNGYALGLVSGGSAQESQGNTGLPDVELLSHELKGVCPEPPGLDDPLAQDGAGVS

Usually IC50 stands for the concentration needed to halve the response being measured. `COc1ccc(-c2cnn(C)c2)c2nc(NC(=O)c3ccnc(N4CCC(C)(O)CC4)c3)[nH]c12` [compound 105]: the IC50 at A2B receptors is less than 1000 nM; at human A3 receptor, less than 1000 nM; at human A2A receptor, less than 10 nM; at human A1 receptor it was greater than 1000 nM.

Turning to `COc1ccc(-c2cnn(C)c2)c2nc(NC(=O)c3ccnc(Br)c3)[nH]c12` [compound 95, 2-bromo-N-[7-methoxy-4-(1-methyl-1H-pyrazol-4-yl)-1H-1,3-benzodiazol-2-yl]pyridine-4-carboxamide], the IC50 on A2B receptors was less than 1000 nM; on human A3 receptor, less than 10 nM; on human A2A receptor, less than 10 nM; on human A1 receptor, less than 1000 nM.

For the compound `COc1ccc(-c2ccc(F)cc2)c2nc(NC(=O)c3ccc(N4C(=O)CCC4=O)cc3)[nH]c12` [compound 317, 4-(2,5-dioxopyrrolidin-1-yl)-N-[4-(4-fluorophenyl)-7-methoxy-1H-1,3-benzodiazol-2-yl]benzamide], the IC50 at A2B receptors was less than 10 nM; at human A3 receptor, less than 1000 nM; on human A2A receptor, less than 10 nM; at human A1 receptor, less than 1000 nM.

For the compound `COc1ccc(-c2ccccc2)c2nc(NC(=O)c3ccc(C(=O)N(C)C)cn3)[nH]c12` [compound 284, N2-(7-methoxy-4-phenyl-1H-1,3-benzodiazol-2-yl)-N5,N5-dimethylpyridine-2,5-dicarboxamide], the IC50 was less than 100 nM at A2B receptors, greater than 1000 nM on human A3 receptor, less than 100 nM at human A2A receptor and greater than 1000 nM at human A1 receptor.

`COc1ccc(-c2cnn(CCC(C)C)c2)c2nc(NC(=O)N3CCC(C)(O)CC3)[nH]c12` [compound 151, 4-hydroxy-N-{7-methoxy-4-[1-(3-methylbutyl)-1H-pyrazol-4-yl]-1H-1,3-benzodiazol-2-yl}-4-methylpiperidine-1-carboxamide]: the IC50 was greater than 1000 nM at A2B receptors, greater than 1000 nM at human A3 receptor, less than 10 nM at human A2A receptor and less than 1000 nM on human A1 receptor.

Turning to `COCCn1cc(C(=O)Nc2nc3c(-c4cccc5c4CCN5)ccc(OC)c3[nH]2)cn1` [compound 283, N-[4-(2,3-dihydro-1H-indol-4-yl)-7-methoxy-1H-1,3-benzodiazol-2-yl]-1-(2-methoxyethyl)-1H-pyrazole-4-carboxamide], the IC50 was less than 100 nM at A2B receptors, less than 1000 nM at human A3 receptor, less than 100 nM on human A2A receptor and greater than 1000 nM on human A1 receptor.

For the compound `COc1ccc(-c2cnn(C)c2)c2nc(NC(=O)N3CC[C@H](F)C3)[nH]c12` [compound 221, (3S)-3-fluoro-N-[7-methoxy-4-(1-methyl-1H-pyrazol-4-yl)-1H-1,3-benzodiazol-2-yl]pyrrolidine-1-carboxamide], the IC50 at A2B receptors was less than 100 nM; on human A3 receptor it was greater than 1000 nM; on human A2A receptor it was less than 10 nM; on human A1 receptor, greater than 1000 nM.

As for `COc1ccc(-c2cnn(C)c2)c2nc(NC(=O)c3ccc4ocnc4c3)[nH]c12` [compound 98, N-[7-methoxy-4-(1-methyl-1H-pyrazol-4-yl)-1H-1,3-benzodiazol-2-yl]-1,3-benzoxazole-5-carboxamide], the IC50 is less than 1000 nM on A2B receptors, less than 1000 nM at human A3 receptor, less than 100 nM on human A2A receptor and greater than 1000 nM on human A1 receptor.

Take `COc1ccc(-c2cnn(Cc3cccnc3)c2)c2[nH]c(NC(=O)N3CCC(C)(O)CC3)nc12` [compound 237, 4-hydroxy-N-(4-methoxy-7-{1-[(pyridin-3-yl)methyl]-1H-pyrazol-4-yl}-1H-1,3-benzodiazol-2-yl)-4-methylpiperidine-1-carboxamide]: the IC50 was less than 100 nM on A2B receptors, less than 1000 nM on human A3 receptor, less than 100 nM on human A2A receptor and less than 1000 nM on human A1 receptor.

`COc1ccc(C2=CCOC2)c2nc(NC(=O)c3ccc(C(=O)N(C)C)cc3)[nH]c12` [compound 261, N4-[4-(2,5-dihydrofuran-3-yl)-7-methoxy-1H-1,3-benzodiazol-2-yl]-N1,N1-dimethylbenzene-1,4-dicarboxamide]: the IC50 on A2B receptors is less than 10 nM; at human A3 receptor, less than 1000 nM; on human A2A receptor, less than 10 nM; at human A1 receptor it was greater than 1000 nM.

With `COc1cc(F)c(C2=CCOCC2)c2nc(NC(=O)c3ccc(C(=O)N(C)C)cc3)[nH]c12` [compound 262, N4-[4-(3,6-dihydro-2H-pyran-4-yl)-5-fluoro-7-methoxy-1H-1,3-benzodiazol-2-yl]-N1,N1-dimethylbenzene-1,4-dicarboxamide], the IC50 on A2B receptors was less than 10 nM; on human A3 receptor, less than 1000 nM; at human A2A receptor, less than 10 nM; on human A1 receptor, greater than 1000 nM.

As for `COc1ccc(N2CCOCC2)c2nc(NC(=O)c3cnn(C(CO)CCl)c3)[nH]c12` (stereo not shown) [compound 86, 1-(1-chloro-3-hydroxypropan-2-yl)-N-[7-methoxy-4-(morpholin-4-yl)-1H-1,3-benzodiazol-2-yl]-1H-pyrazole-4-carboxamide], the IC50 is greater than 1000 nM on A2B receptors, greater than 1000 nM on human A3 receptor, less than 10 nM at human A2A receptor and greater than 1000 nM on human A1 receptor.

Turning to `COc1ccc(C2CCOCC2)c2nc(NC(=O)c3ccc(CN(C)C)cc3)[nH]c12` [compound 88, 4-[(dimethylamino)methyl]-N-[7-methoxy-4-(oxan-4-yl)-1H-1,3-benzodiazol-2-yl]benzamide], the IC50 at A2B receptors is greater than 1000 nM; at human A3 receptor, greater than 1000 nM; at human A2A receptor, less than 10 nM; at human A1 receptor, greater than 1000 nM.

Turning to `COc1ccc(-c2cnn(C)c2)c2nc(NC(=O)c3ccc4c(c3)CCO4)[nH]c12` [compound 101, N-[7-methoxy-4-(1-methyl-1H-pyrazol-4-yl)-1H-1,3-benzodiazol-2-yl]-2,3-dihydro-l-benzofuran-5-carboxamide], the half-inhibitory concentration (IC50) is less than 1000 nM at A2B receptors, less than 1000 nM on human A3 receptor, less than 10 nM on human A2A receptor and less than 1000 nM at human A1 receptor.

Turning to `COc1ccc(-c2cnn(C3CCN(C(=O)OC(C)(C)C)CC3)c2)c2[nH]c(NC(=O)N3CCC(C)(O)CC3)nc12` [compound 145, tert-butyl 4-(4-{2-[(4-hydroxy-4-methylpiperidine-1-carbonyl)amino]-4-methoxy-1H-1,3-benzodiazol-7-yl}-1H-pyrazol-1-yl)piperidine-1-carboxylate], the IC50 on A2B receptors is greater than 1000 nM; at human A3 receptor, greater than 1000 nM; on human A2A receptor it was less than 10 nM; at human A1 receptor, greater than 1000 nM.

Regarding `COc1ccc(-c2cn[nH]c2)c2nc(NC(=O)N3CCC(C)(O)CC3)[nH]c12` [compound 79, 4-hydroxy-N-[7-methoxy-4-(1H-pyrazol-4-yl)-1H-1,3-benzodiazol-2-yl]-4-methylpiperidine-1-carboxamide], the IC50 on A2B receptors is less than 1000 nM; at human A3 receptor, greater than 1000 nM; on human A2A receptor, less than 100 nM; at human A1 receptor it was greater than 1000 nM.

As to `COCCC1CCN(C(=O)Nc2nc3c(-c4cnn(C)c4)ccc(OC)c3[nH]2)C1` (stereo not shown) [compound 134, N-[7-methoxy-4-(1-methyl-1H-pyrazol-4-yl)-1H-1,3-benzodiazol-2-yl]-3-(2-methoxyethyl)pyrrolidine-1-carboxamide], the concentration for half-maximal inhibition (IC50) is less than 1000 nM at A2B receptors, greater than 1000 nM at human A3 receptor, less than 100 nM on human A2A receptor and greater than 1000 nM at human A1 receptor.

For the compound `COc1ccc(-c2cnn(C)c2)c2nc(NC(=O)c3ccc(C(=O)N(C)C)nc3)[nH]c12` [compound 162, N5-[7-methoxy-4-(1-methyl-1H-pyrazol-4-yl)-1H-1,3-benzodiazo1-2-yl]-N2,N2-dimethylpyridine-2,5-dicarboxamide], the IC50 was less than 1000 nM at A2B receptors, greater than 1000 nM on human A3 receptor, less than 100 nM at human A2A receptor and greater than 1000 nM on human A1 receptor.

Take `COc1ccc(-c2cnn(C)c2)c2nc(NC(=O)N3CCC(Oc4ccccc4)CC3)[nH]c12` [compound 54, N-[7-methoxy-4-(1-methyl-1H-pyrazol-4-yl)-1H-1,3-benzodiazol-2-yl]-4-phenoxypiperidine-1-carboxamide]: the IC50 was less than 1000 nM on A2B receptors, greater than 1000 nM on human A3 receptor, less than 100 nM at human A2A receptor and less than 1000 nM on human A1 receptor.

The values above are taken from patent US11453647B2, “Benzimidazole derivatives as adenosine receptor antagonists” (Merck Patent GmbH, priority 2017, dated 2022).
